Consider one compound from patent US10905680B2, “Methods of treatment for cholestatic and fibrotic diseases” (Genfit, priority 2016, dated 2021).

The structures appear in SMILES notation.

The test system of assay [1] is Normal Human Lung Fibroblasts (NHLF). Kind of assay: TGFβ1-induced expression of α-SMA protein in human lung fibroblasts (ELISA). The class given is cell-based. The note with it: concentration of 1 μM; TGFβ1 1 ng/ml, 48 hours. Here is the method: NTZ (A) or TZ (B) was added to serum-deprived lung fibroblasts (NHLF) 1 hour before the activation with TGFβ1 (1 ng/ml). After 48 hours of incubation, the expression of α-SMA was measured by ELISA. The obtained values were transformed into percentage inhibition over TGFβ1 control. Data are presented as mean (triplicates)±standard deviation (SD). Statistical analyses were performed by one-way ANOVA followed by Bonferroni post-hoc tests, using Sigma Plot 11.0 software. [*: p<0.05; **: p<0.01; ***: p<0.001 (comparison versus TGFβ1 1 ng/mL group)].
The Normal Human Lung Fibroblasts (NHLF) (Lonza) were cultured in Fibroblast Basal Medium (FBM) (Lonza cat # CC-3131) that was supplemented with FGM-2 SingleQuots™ Kit (Lonza cat # CC-3132). The complete medium contains 2% fetal bovine serum. For the activation experiments with TGFβ1, the NHLF were plated at a density of 5×10^3 cells per well in 96-well plates. The next day, cell-culture medium was removed, and cells were washed with PBS (Invitrogen cat #14190). NHLF were deprived for 24 hours in serum-free, insulin-free and rhFGF-B-free medium. […]
The level of α-SMA was measured using a Sandwich ELISA. […]

The subject of assay [2] is rat primary hepatic stellate cells (rHSC). Kind of assay: TGFβ1-induced expression of α-SMA protein in rat HSC (ELISA). The conditions noted are these: TGFβ1 3 ng/ml, 48 hours. The assay is classed as cell-based. Here is the method:
NTZ (A) or TZ (B) were added to serum-deprived rat HSC (rHSC) 1 hour before the activation with TGFβ1 (3 ng/ml). After 48 hours of incubation, the expression of α-SMA was measured by ELISA. The obtained values were transformed into percentage inhibition over TGFβ1 control. Data are presented as mean (triplicates)±standard deviation (SD). Statistical analyses were performed by one-way ANOVA followed by Bonferroni post-hoc tests, using Sigma Plot 11.0 software. [*: p<0.05; **: p<0.01; ***: p<0.001 (comparison versus TGFβ1 3 ng/mL group)]. The rat primary hepatic stellate cells (rHSC) (Innoprot) were cultured in STeCM medium (ScienCell cat #5301) that was supplemented with 2% fetal bovine serum (FBS, ScienCell cat #0010), 1% penicillin/streptomycin (ScienCell cat #0503) and stellate cell growth supplement (SteCGS; ScienCell cat #5352). For the activation experiments with TGFβ1, the rHSC were plated at a density of 10×10^3 cells per well in 96-well plates. The next day, cell culture medium was removed, and cells were washed with PBS (Invitrogen cat #14190). rHSC were deprived for 24 hours in serum-free and SteCGS-free medium. […] The level of α-SMA was measured using a Sandwich ELISA. […]

Regarding `O=C(Nc1ncc([N+](=O)[O-])s1)c1ccccc1O` [TZ, 2-hydroxy-N-(5-nitro-2-thiazolyl)benzamide], in assay [1], the “antifibrotic effects (α-SMA) in normal human lung fibroblasts” value is recorded as “significant antifibrotic effects”. Also, the “α-SMA levels in TGFβ-activated HSC derived from rat” value in assay [2] is given as “reduced”.
